Measurements reported in US20040038855A1 (priority 1999, published 2004).
Structures can show the parent of a compound that is named as a salt. Where two headings read alike, the source gives them in different places.

Assays:
[1] = biological target: T1, human GALR1 receptor (Homo sapiens, UniProt P47211); experiment: Binding affinity at the human GALR1 receptor
T1 construct: expressed in transfected cells
T1 sequence (P47211 1-349): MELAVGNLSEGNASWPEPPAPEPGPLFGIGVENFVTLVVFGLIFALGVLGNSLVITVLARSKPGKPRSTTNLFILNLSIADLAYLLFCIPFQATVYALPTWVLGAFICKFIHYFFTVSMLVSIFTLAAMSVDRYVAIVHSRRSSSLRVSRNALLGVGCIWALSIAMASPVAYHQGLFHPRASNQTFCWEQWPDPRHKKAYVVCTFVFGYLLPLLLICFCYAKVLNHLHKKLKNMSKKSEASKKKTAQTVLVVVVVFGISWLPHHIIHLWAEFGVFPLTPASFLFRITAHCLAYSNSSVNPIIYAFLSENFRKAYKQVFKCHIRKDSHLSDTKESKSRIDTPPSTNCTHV

[2] = biological target: T2, rat 5HT2C receptor (Rattus norvegicus, UniProt P08909); experiment: Binding affinity at the rat 5HT2C receptor
T2 construct: expressed in transfected cells
T2 sequence (P08909 33-460): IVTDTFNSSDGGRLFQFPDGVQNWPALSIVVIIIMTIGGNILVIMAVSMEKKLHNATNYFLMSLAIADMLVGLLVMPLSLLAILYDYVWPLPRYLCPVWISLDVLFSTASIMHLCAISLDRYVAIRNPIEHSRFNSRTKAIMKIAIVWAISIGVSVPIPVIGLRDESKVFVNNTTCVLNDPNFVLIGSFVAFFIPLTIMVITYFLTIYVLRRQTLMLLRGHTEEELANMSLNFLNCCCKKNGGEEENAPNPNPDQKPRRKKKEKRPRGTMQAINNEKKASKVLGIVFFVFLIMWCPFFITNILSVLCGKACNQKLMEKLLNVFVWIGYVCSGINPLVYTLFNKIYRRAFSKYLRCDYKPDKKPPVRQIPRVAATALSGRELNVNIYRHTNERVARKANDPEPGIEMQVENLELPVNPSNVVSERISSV
How it was run: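 Affinity measured by a literature binding protocol using rat 5HT2C cDNA expressed heterologously.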

[3] = biological target: T3, human Histamine H1 receptor (Homo sapiens, UniProt P35367); experiment: Binding affinity at the human histamine H1 receptor
T3 construct: expressed in transfected cells
T3 sequence (P35367 whole entry): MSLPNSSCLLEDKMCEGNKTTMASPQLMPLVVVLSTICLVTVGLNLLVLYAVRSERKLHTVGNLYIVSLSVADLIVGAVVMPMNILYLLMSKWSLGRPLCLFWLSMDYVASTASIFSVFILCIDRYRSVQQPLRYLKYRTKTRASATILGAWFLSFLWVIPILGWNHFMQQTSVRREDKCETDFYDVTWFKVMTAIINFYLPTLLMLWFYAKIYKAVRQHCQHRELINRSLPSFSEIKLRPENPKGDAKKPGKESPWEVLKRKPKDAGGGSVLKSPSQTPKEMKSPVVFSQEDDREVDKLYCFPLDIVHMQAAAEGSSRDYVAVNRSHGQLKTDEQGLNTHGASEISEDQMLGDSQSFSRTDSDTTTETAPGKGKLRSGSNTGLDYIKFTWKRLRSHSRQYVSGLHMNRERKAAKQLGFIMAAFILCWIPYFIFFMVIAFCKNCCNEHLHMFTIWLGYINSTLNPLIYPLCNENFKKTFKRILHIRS
How it was run: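 Receptor binding read-out throughout; membranes expressing human D1 or D2 receptor were used for those two targets.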

[4] = biological target: T4, human α1B adrenoceptor (Homo sapiens, UniProt P35368); experiment: Binding affinity at the human α1B adrenergic receptor; details: Table 3d; read-out: hα1B Ki
T4 construct: expressed in transfected cells
T4 sequence (P35368 1-520): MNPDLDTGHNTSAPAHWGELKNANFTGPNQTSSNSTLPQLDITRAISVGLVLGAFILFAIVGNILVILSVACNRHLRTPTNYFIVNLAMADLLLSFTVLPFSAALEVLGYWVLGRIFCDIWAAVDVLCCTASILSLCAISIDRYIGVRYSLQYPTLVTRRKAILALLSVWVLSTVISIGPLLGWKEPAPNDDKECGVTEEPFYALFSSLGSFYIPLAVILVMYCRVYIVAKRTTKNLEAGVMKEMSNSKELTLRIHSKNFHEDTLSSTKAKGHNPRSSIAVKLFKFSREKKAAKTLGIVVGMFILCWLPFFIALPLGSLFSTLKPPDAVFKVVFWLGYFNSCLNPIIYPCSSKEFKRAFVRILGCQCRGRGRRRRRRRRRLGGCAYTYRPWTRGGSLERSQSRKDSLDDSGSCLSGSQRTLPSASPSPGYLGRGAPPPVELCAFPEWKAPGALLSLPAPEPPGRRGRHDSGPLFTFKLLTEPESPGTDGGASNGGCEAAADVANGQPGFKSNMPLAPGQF
Source text: (§1) Other receptors: Cell membranes expressing human dopamine D1, D2, D4 and rat D3 receptors were purchased through BioSignal, Inc. (Montreal, Canada). Binding assays using the histamine H1 receptor; dopamine receptors; and α1A, α1B, and α2 adrenergic receptors may be carried out according to the procedures described in U.S. Pat. No. 5,780,485, the disclosure of which is hereby incorporated by reference in its entirety into this application. Binding assays using the dopamine D5 receptor may be carried out according to the procedures described in U.S. Pat. No. 5,882,855, the disclosure of which is hereby incorporated by reference in its entirety into this application. Binding assays for the human α1D adrenergic receptor may be carried out according to the procedures described in U.S. Pat. No. 6,156,518, the disclosure of which is hereby incorporated by reference in its entirety into this application.

[5] = biological target: T5, human α2A adrenoceptor (Homo sapiens, UniProt P08913); experiment: Binding affinity at the human α2A adrenergic receptor
T5 construct: expressed in transfected cells
T5 sequence (P08913 1-465): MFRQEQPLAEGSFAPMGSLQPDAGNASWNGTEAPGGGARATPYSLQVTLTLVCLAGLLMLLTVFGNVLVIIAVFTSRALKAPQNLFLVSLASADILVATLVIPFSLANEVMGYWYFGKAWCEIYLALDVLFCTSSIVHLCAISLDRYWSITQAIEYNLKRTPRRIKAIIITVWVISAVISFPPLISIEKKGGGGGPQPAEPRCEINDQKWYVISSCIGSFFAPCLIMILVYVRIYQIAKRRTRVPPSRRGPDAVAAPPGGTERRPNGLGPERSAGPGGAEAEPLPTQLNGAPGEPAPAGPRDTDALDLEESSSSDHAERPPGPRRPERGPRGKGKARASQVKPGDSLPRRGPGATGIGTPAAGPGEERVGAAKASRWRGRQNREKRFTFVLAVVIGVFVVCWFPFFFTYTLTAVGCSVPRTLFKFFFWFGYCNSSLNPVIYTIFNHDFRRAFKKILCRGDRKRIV
Source text: as §1

Molecule | Ki ([1]; Table 3a, read-out: hGALR1 Ki) [µM] | Ki ([1]; Table 3b, read-out: hGALR1 Ki) [µM] | Ki ([2]; Table 3a, read-out: r5HT2C Ki) [µM] | Ki ([2]; Table 3b, read-out: r5HT2C Ki) [µM] | Ki ([3]; Table 3e, read-out: hH1 Ki) [µM] | Ki [4] [µM] | Ki ([5]; Table 3d, read-out: hα2A Ki) [µM] | Ki [1] [µM] | Ki ([1]; read-out: hGALR1 Ki, Table 3b) [µM] | Ki [3] [µM] | Ki [5] [µM] | Ki [2] [µM] | Ki ([2]; read-out: r5HT2C Ki, Table 3b) [µM]
2-(3,4-DIFLUOROPHENYL)4,5-DIHYDROIMIDAZOLE-1-CARBOXYLIC ACID {3-[4-PHENYL-4-(4-BROMO-5-METHYLTHIOPNEN-2-YL)]-PROPYL}-AMIDE [Example 19] | > 50 | > 50 | 11.7 | 11.7 | 0.011 | 0.104 | 0.285 | – | – | – | – | – | –
COC(=O)C1=C(C)NC(=O)N(C(=O)NCCCN2CCC3(CC2)OCc2ccccc23)C1c1ccc2nonc2c1 (single isomer, unassigned) [Example 18, HYDROCHLORIDE] | – | – | 32.6 | – | – | 0.418 | – | > 50 | > 50 | 0.031 | 0.057 | – | –
CCC1=C(C(=O)O)C(c2ccc(F)c(F)c2)N(C(=O)NCCCN2CCC3(CC2)OCc2ccccc23)C(=O)N1 (single isomer, unassigned; (+)) [Example 4, (+)-1,2,3,6-TETRAHYDRO-1-1N-[4-(BENZO-4′,5′(H)FURAN)PIPERIDIN-1-YL]PROPYL}-CARBOXAMIDO-4-ETHYL-6-(3,4-DIFLUOROPHENYL)-2-OXO-PYRIMIDINE-5 CARBOXYLIC ACID HYDROCHLORIDE] | > 50 | > 50 | 34.8 | – | – | – | – | – | – | – | – | – | –
COCC1=C(C(=O)OC)C(c2ccc(F)c(F)c2)N(C(=O)NCCCN2CCC(c3cccc(NC(C)=O)c3)CC2)C(=O)N1 (single isomer, unassigned; (-)) [Example 1, (−)-1,2,3,6-TETRAHYDRO-1-{N-[4-(3,-ACETAMIDO)-PHENYLPIPERIDIN-1-YL]PROPYL}CARBOXAMIDO-4-METHOXYMETHYL-6-(3,4-DIFLUORO-PHENYL)-2-OXOPYRIMIDINE-5-CARBOXYLIC ACID METHYL ESTER] | > 50 | > 50 | > 50 | > 50 | – | 9.03 | – | – | – | – | – | – | –
CCCCN(CCCC)c1ccc(CN2CCC(CNC(=O)N3C(=O)NC(C)=C(C(=O)OC)C3c3ccc4nonc4c3)CC2)cc1 (stereo not drawn) [Example 6] | 11.1 | 11.1 | 25.5 | 25.5 | – | – | – | – | – | – | – | – | –
COCC1=C(C(=O)OC)[C@H](c2ccc(F)c(F)c2)N(C(=O)NCCCN2CCC(c3cccc(NC(C)=O)c3)CC2)C(=O)N1 [Example 10, (+)-1,2,3,6-TETRAHYDRO-1-{N-[4-(3,-ACETAMIDO)-PHENYLPIPERIDIN-1-YL]PROPYL}CARBOXAMIDO-4-METHOXYMETHYL-6-(3,4-DIFLUORO-PHENYL)-2-OXOPYRIMIDINE-5-CARBOXYLIC ACID METHYL ESTER] | > 50 | > 50 | 29.6 | – | 4.88 | 11.3 | – | – | – | – | – | – | –
CCCCN(CCCC)c1ccc(CNC[C@H]2CC[C@H](NC(=O)c3cccc4ccccc34)CC2)cc1 [Example 13, N1-[4-([4-(DIBUTYLAMINO)BENZYL]AMINOMETHYL)CYCLOHEXYL]-1-NAPHTH-AMIDE] | 11.3 | 11.3 | 25 | 25 | – | – | – | – | – | – | – | – | –
COC(=O)C1=C(C)NC(=O)N(C(=O)NCCCN2CCC3(CC2)OCc2ccccc23)C1c1ccc(F)c(F)c1 (stereo not drawn) [Example 20, 4-(3,4-DIFLUORPHENYL)-6-METHYL-2-OXO-3-{[3-(4-SPIRO[ISOBENZOFURAN-1(3H),4′-PIPERIDINE]PROPYL}-1,2,3,4-TETRAHYDROPYRIMIDINE-5-CARBOXYLIC ACID METHYL ESTER] | – | – | 15.1 | 15.1 | – | 0.407 | – | > 50 | > 50 | 0.039 | 0.099 | – | –
O=C(CCCN1CCC(O)(c2ccc(Cl)cc2)CC1)c1ccc(Cl)cc1 [Example 29] | – | – | – | – | – | – | – | > 50 | > 50 | – | – | > 50 | > 50
